In brackets after ≈: the same amount, converted by molar mass. Entries after “also recorded” stand apart in the source; their conditions may differ. Like-named read-outs stand apart in the source and are kept apart here.
Columns and labels:
[1] = test system: rabbit platelet rich plasma; assay: Effect on in vitro platelet aggregation; type: cell-based, rabbit (male Japanese white); details: for IC50: Oryctolagus cuniculus, Platelet
Description: 5. Effect on in vitro platelet aggregation Arterial blood was drawn from the ear artery of male Japanese white rabbits. Platelet rich plasma (PRP) was prepared by centrifugation of 9 ml of blood mixed with 1 ml of 3.8% sodium citrate as anticoagulant. Platelet aggregation was measured optically according to Born's method. ADP (10 μM), collagen (37.5 μg/ml), platelet activating factor (PAF, 0.11 nM) and calcium ionophore A 23187 (1 μg/ml) were used as platelet aggregators. Test compounds were added 1 minute prior to the addition of aggregating agents.

[2] = test system: rabbit platelet rich plasma; assay: Effect on in vitro platelet aggregation; type: cell-based, rabbit (male Japanese white); details: Oryctolagus cuniculus, aggregator AA, read-out: Anti-platelet aggregation IC50, AA
Male ddY mice [3] = assay: Anti-cerebroischemic effect (brain protection after ischemia by decapitation): gasping time; type: in vivo, mouse (male ddY); details: intraperitoneal, 30 min before decapitation
Description: 1. Anti-cerebroischemic effect (i.e., brain protection after ischemia by decapitation)
Male ddY mice weighing 22-30 g were used in groups each consisting of 6 animals. Test compounds were administered intraperitoneally to the mice which were decapitated 30 minutes after the administration. The gasping time, or the duration of time between the onset of panting after decapitation and its cessation, was measured, and this was compared with the gasping time for a control group which were given only a liquid vehicle.

Male ddY mice [4] = assay: Anti-hypoxia effect (brain protection in low-oxygen state after evacuation): survival time; type: in vivo, mouse (male ddY); details: intraperitoneal, 180 mmHg
Description: 2. Anti-hypoxia effect (i.e., […] protection in low-oxygen state after evacuation)
Male ddY m8mice weighing 22-30 g were used in groups each consisting of 7-10 animals. The mice were placed in a desiccator (capacity: ca. 1,000 ml) which was evacuated with a vacuum pump to an internal pressure of 180 mmHg after intraperitoneal administration of test compounds. The survival time, or the duration of time between the start of evacuation and the cessation of breathing, was measured, and this was compared with the value for a vehicle group. Any survival time longer than a period of 15 minutes after application of a hypoxia load was counted as 15 minutes.

vertebral artery = assay: Effect on blood flow in the vertebral artery, blood pressure and heart rate in anesthetized dogs; type: in vivo, dog (mongrel); details: femoral vein
Description: 4. Effect on blood flow in the vertebral artery, blood pressure and heart rate in anesthetized dogs
Mongrel dogs of either sex, weighing 6.8-9.4 kg, were used. The animals were anesthetized with an intravenous injection, at first, of 30 mg/kg of sodium thiopental and thereafter, of a combination of urethane 400 mg/kg and α-chloralose 60 mg/kg. Under artificial ventilation (20 ml/kg/stroke, 20 strokes/min), blood flow in the vertebral artery and blood pressure were measured with the aid of an extracorporeal electromagnetic flow probe placed on the artery and a pressure transducer, respectively. Vertebral vascular resistance was recorded with an electronic divider and heart rate was measured with a heart rate counter triggered by blood pressure pulses. All of these parameters were recorded on a polygraph continuously. When these parameters became stable, test compounds were injected into the femoral vein.

[5] = test system: scopolamine amnesia mouse; assay: Anti-amnesia effect (scopolamine-induced retrograde amnesia), step-through passive avoidance; type: in vivo, mouse (male ddY); details: ip, 24 h, significant prolongation of step-through latency, intraperitoneal, scopolamine 0.5 mg/kg s.c., read-out: Minimum effective amount
Description: 6a. Anti-amnesia effect (i.e., capability of preventing scopolamine-inducedretrograde amnesia)
Five-week old male ddY weighing 25-30 g were used in groups each consisting of 10 animals. Memory retention deficit induced by scopolamine was evaluated by two-compartment step-through passive avoidance task. […] The floor of the dark compartment was provided with a current-conducting grid.
The experimental method was as follows. A scopolamine amnesia mouse that had been given subcutaneous injection of 0.5 mg/kg of an aqueous solution of scopolamine borate 20 minutes before was placed in the light compartment and when its forefeet touched the grid floor of the dark compartment, a current of 0.6 mA was applied to give a foot shock to the mouse (acquired conation). Immediately thereafter, a selected test compound or a control (physiological saline solution) was administered intraperitoneally. Twenty-four hours later, the mouse was replaced in the light compartment and the step-through latency, or the time required for the mouse to move to the dark compartment, was measured for a period of up to 300 seconds (test conation). The minimum effective amount of the test compound that provided a significant prolongation of the step-through latency over the control was determined.

[6] = test system: ECS-induced amnesia in mice; assay: Effect on electroconvulsive shock (ECS)-induced amnesia in mice, step-through passive avoidance; type: in vivo, mouse (male ddY); details: 6.25 and 12.5 mg/kg, intraperitoneal, 30 minutes before retention test
Description: (§1) 6b. Effects on electroconvulsive shock (ECS)- and cycloheximide-induced amnesia in mice
(§2) Male, ddY strain mice, weighing 25 to 35 g, were used. Memory retention deficit induced by ECS and cycloheximide was evaluated by two-compartment step-through passive avoidance task using a light-dark apparatus. Passive avoidance training test began by placing the mouse into the light compartment. When the mouse moved completely into the dark compartment, a shock of 0.6 mA was applied from the grid floor. Amnesia was induced in the following two ways. In the first one, a single ECS (current 50 mA, frequency 50 Hz, pulse width 1 msec, shock duration 1 msec) was applied via a pair of electrodes attached to the head immediately after receiving the foot shock, and the mouse was returned to its home cage. Test compounds were administered intraperitoneally 30 minutes before a retention test. In the second one, cycloheximide (40 mg/kg) was administered subcutaneously 30 minutes before the training and the compounds in question were administered intraperitoneally immediately after the training. A retention test was given 24 hours later. The test procedures proceeded in a manner similar to the training one, and time to entry into the dark compartment was measured for 300 seconds.

[7] = test system: cycloheximide-induced amnesia in mice; assay: Effect on cycloheximide-induced amnesia in mice, step-through passive avoidance; type: in vivo, mouse (male ddY); details: 6.25 and 50 mg/kg, intraperitoneal, immediately after training; cycloheximide 40 mg/kg s.c.
Description: as §1, §2

Male ICR mice = assay: Anti-depression effect (forced swimming, revolutions of water wheel); type: in vivo, mouse (male ICR); details: 50 mg/kg, intraperitoneal
Source text: Male ICR mice weighing 25-30 g were used in groups each consisting of 6 or 7 animals. […] First, the mouse was subjected to force swimming for two days on a 15-minutes-a-day basis; starting on the third day, the mouse that had received intraperitoneal injection of a test compound one hour before was subjected to forced swimming for 3 days on a 15-minutes-a-day basis.

[8] = aggregator ADP (10 μM), read-out: Anti-platelet aggregation IC50, ADP
[9] = aggregator PAF (0.11 nM), read-out: Anti-platelet aggregation IC50, PAF
[10] = aggregator calcium ionophore A 23187 (1 μg/ml), read-out: Anti-platelet aggregation IC50, A 23187
[11] = aggregator collagen (37.5 μg/ml), read-out: Anti-platelet aggregation IC50, Collagen

With CN(C)CCCN1c2ccccc2Sc2ccc(Cl)cc21 [Chlorpromazine] the IC50 [1, 8] was 57 µg/mL (≈ 179 µM), the IC50 [1, 9] was 93 µg/mL (≈ 292 µM) and the IC50 [1, 10] was 125 µg/mL (≈ 392 µM). The IC50 [1, 11] was 22 µg/mL (≈ 69 µM) and the IC50 [2] was 105 µg/mL (≈ 329 µM).

In the case of CN(C)CCCON=C1c2ccccc2OC2(c3ccccc3)CC12 (stereo not shown) [Example 2, 3,4-Benzo-5-(3-dimethylaminopropyl)oxyimino-1-phenyl-2-oxabicyclo[4.1.0]heptane], the “prolongation of gasping time” value (Male ddY mice [3]; 12.5 mg/kg) is reported as “significant prolongation of the gasping time”, the “prolongation of gasping time” value (Male ddY mice [3]; 25 mg/kg) is reported as “significantly prolonging the gasping time” and the “prolongation of survival time” value (Male ddY mice [4]; 6.25 mg/kg or smaller) is reported as “significant prolongation of the survival time”. For the same molecule, the “prolongation of survival time” value (Male ddY mice [4]; 12.5 mg/kg) was “significantly prolonging the survival time”, the blood pressure (vertebral artery; 3.0 mg/kg) was “small decrease” and the heart rate (vertebral artery; 3.0 mg/kg) was “increase”. For the same molecule, the vertebral vascular resistance (vertebral artery; 3.0 mg/kg) was “further decrease”, the blood pressure (vertebral artery; 0.3 and 1.0 mg/kg) was “almost no change” and the heart rate (vertebral artery; 0.3 and 1.0 mg/kg) was “almost no change”. The vertebral vascular resistance (vertebral artery; 0.3 and 1.0 mg/kg) was “dose-dependent decreases”, the IC50 [1, 8] was 34.5 µg/mL (≈ 103 µM) and the IC50 [1, 9] was 20 µg/mL (≈ 59.4 µM). For the same molecule, the IC50 [1, 10] was 69 µg/mL (≈ 205 µM), the IC50 [1, 11] was 4.1 µg/mL (≈ 12.2 µM) and the “platelet aggregation” value ([1]; all the aggregators used, listed as Compound No. 2) was “decreases in platelet aggregation induced by all the aggregators used; also recorded: nonspecific inhibitory actions on in vitro platelet aggregation”. The minimal effective dose [5] was 3.2 mg/kg, the “prevention of ECS-induced shortening of step-through latency” value [6] was “significantly prevented the ECS-induced shortening of step-through latency” and the “prolongation of step-through latency shortened by cycloheximide” value [7] was “significantly prolonged the step-through latency”. For the same molecule, the “anti-depression effect” value (Male ICR mice) was “anti-depression effect”, the “rotation of the water wheel relative to control group” value (Male ICR mice; one hour before forced swimming) was 1.8 times and the IC50 [2] was 54 µg/mL (≈ 161 µM).

For NCCCCCCNS(=O)(=O)c1cccc2c(Cl)cccc12 [Example W-7], the IC50 [1, 8] was 18 µg/mL (≈ 52.8 µM), the IC50 [1, 9] was 27 µg/mL (≈ 79.2 µM) and the IC50 [1, 10] was 19 µg/mL (≈ 55.7 µM). The IC50 [1, 11] was 11 µg/mL (≈ 32.3 µM) and the IC50 [2] was 11 µg/mL (≈ 32.3 µM).
